Experimental data published in ChEMBL document CHEMBL4811216, “Chemotherapy for human schistosomiasis: how far have we come? What's new? Where do we go from here?” (RSC Med Chem, 2020).
Blank lines part the entries; values can stand above or below the compound they belong to.

What was measured:
Schistosoma mansoni [1] = test: microbe, parasite or virus in culture; conditions: 72 h
Description: Antischistosomal activity against Schistosoma mansoni incubated for 72 hrs by inverted microscopic method

Schistosoma mansoni [2] = test: Antischistosomal activity against Schistosoma mansoni infected in NMRI mouse assessed as worm burden reduction at 200 mg/kg, po administered as single dose and measured after 17 to 21 days relative to control; type: functional, organism-based; design: scale not given: the % may be the effect or the level left; conditions: time 17-21 day
Schistosoma mansoni [3] = test: microbe, parasite or virus in culture; conditions: Liberian, 72 h
Description: Antischistosomal activity against Schistosoma mansoni Liberian NTS incubated for 72 hrs by microscopic method

Schistosoma haematobium [4] = test: Antischistosomal activity against Schistosoma haematobium at 10 uM measured after 72 hrs relative to control; type: functional
Schistosoma mansoni [5] = test: Antischistosomal activity against Schistosoma mansoni infected in NMRI mouse assessed as worm burden reduction at 400 mg/kg, po administered […] for 4 consecutive days and measured after 14 days relative to control; type: functional; design: scale not given: the % may be the effect or the level left; conditions: time 14 day
Schistosoma mansoni [6] = test: Antischistosomal activity against Schistosoma mansoni assessed as worm mortality at 5 ug/ml incubated for 5 days by stereomicroscopic method relative to control; type: functional; conditions: 120 h, time 5 day
[7] = Cytotoxicity against Biomphalaria alexandrina incubated for 24 hrs
[8] = Cytotoxicity against Biomphalaria alexandrina incubated for 24 hrs relative to control; design: concentration or dose not given beside the values
Schistosoma mansoni [9] = test: Antischistosomal activity against Schistosoma mansoni Puerto-Rican assessed as worm mortality incubated for 5 days by stereomicroscopic method; type: functional, organism-based; conditions: 120 h
Schistosoma mansoni [10] = test: Antischistosomal activity against Schistosoma mansoni Egyptian assessed as worm mortality incubated for 5 days by stereomicroscopic method; type: functional, organism-based; conditions: 120 h
Schistosoma mansoni [11] = test: Antischistosomal activity against Schistosoma mansoni Schistosomula assessed as worm death at 10 uM incubated for 24 hrs relative to control; type: functional
Schistosoma japonicum = test: Antischistosomal activity against Schistosoma japonicum assessed as worm death at 10 uM incubated for 120 hrs relative to control; type: functional; conditions: Schistosoma japonicum
Schistosoma mansoni [12] = test: Antischistosomal activity against adult Schistosoma mansoni assessed as worm death at 10 uM incubated for 120 hrs relative to control; type: functional
Schistosoma mansoni [13] = test: Antischistosomal activity against juvenile Schistosoma mansoni assessed as worm death at 10 uM incubated for 120 hrs relative to control; type: functional
Schistosoma haematobium [14] = test: Antischistosomal activity against Schistosoma haematobium assessed as worm death at 10 uM incubated for 120 hrs relative to control; type: functional
[15] = target: T1, Thioredoxin glutathione reductase (Schistosoma mansoni, UniProt Q962Y6); test: Inhibition of Schistosoma mansoni thioredoxin glutathione reductase incubated for 30 mins by DTNB assay
T1 sequence (Q962Y6 whole entry): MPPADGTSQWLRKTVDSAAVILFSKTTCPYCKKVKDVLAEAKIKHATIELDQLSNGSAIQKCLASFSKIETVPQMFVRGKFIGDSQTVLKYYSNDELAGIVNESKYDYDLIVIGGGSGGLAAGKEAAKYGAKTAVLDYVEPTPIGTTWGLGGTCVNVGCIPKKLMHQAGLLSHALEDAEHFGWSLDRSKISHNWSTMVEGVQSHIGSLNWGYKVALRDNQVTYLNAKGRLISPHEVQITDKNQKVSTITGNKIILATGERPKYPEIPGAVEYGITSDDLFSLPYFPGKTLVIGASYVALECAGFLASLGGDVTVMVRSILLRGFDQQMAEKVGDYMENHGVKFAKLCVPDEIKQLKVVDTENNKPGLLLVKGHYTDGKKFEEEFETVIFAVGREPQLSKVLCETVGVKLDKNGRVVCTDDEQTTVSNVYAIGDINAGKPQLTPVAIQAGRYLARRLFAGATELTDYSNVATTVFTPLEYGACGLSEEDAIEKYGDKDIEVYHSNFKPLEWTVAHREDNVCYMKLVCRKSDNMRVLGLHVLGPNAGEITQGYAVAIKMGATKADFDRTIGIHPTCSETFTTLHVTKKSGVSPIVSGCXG

Schistosoma mansoni [16] = test: Antischistosomal activity against Schistosoma mansoni Puerto-Rican incubated for 72 hrs by inverted microscopic method; type: functional, organism-based
Schistosoma mansoni [17] = test: Antischistosomal activity against Schistosoma mansoni Liberian infected in NMRI mouse assessed as worm burden reduction at 200 mg/kg, po measured after 14 days relative to control; type: functional; design: scale not given: the % may be the effect or the level left; conditions: time 14 day
Schistosoma mansoni [18] = test: Antischistosomal activity against Schistosoma mansoni Puerto Rican schistosomula assessed as effect on worm phenotype measured after 72 hrs; type: functional, organism-based
Schistosoma mansoni [19] = test: Antischistosomal activity against Schistosoma mansoni Puerto Rican schistosomula assessed as effect on worm motility measured after 72 hrs; type: functional, organism-based

IC50 (Schistosoma mansoni [1]): 3.7 µM | IC50 (Schistosoma mansoni [3]): 0.4 µM
SMILES: CS(=O)(=O)c1ccc(C(=O)N(CC2CCCO2)c2nc3ccccc3s2)cc1[N+](=O)[O-] (centres undefined)
Activity (Schistosoma mansoni [2]): 55.2% | Activity (Schistosoma haematobium [4]): 90.8%

IC50 (Schistosoma mansoni [3]): 4.7 µM
SMILES: O=C(Nc1ccc(Cl)c(Cl)c1)Nc1ccc(Cl)c(Cl)c1
Activity (Schistosoma mansoni [5]): 52.5%

SMILES: CN(C)CCNc1c2c3ccccc3nc-2n(C)c2ccc(Cl)cc12
mortality at 5 µg/mL (Schistosoma mansoni [6]): 100% | LC50 [7]: 1.47 µM | LC90 [7]: 2.12 µM | mortality [8]: 100% | IC50 (Schistosoma mansoni [9]): 5.95 µM | IC90 (Schistosoma mansoni [9]; time 5 day): 13 µM | IC50 (Schistosoma mansoni [10]): 3.68 µM | IC90 (Schistosoma mansoni [10]; time 5 day): 7.65 µM

SMILES: COc1ccc([N+](=O)[O-])c(S(=O)(=O)c2ccc(Cl)cc2)n1
mortality at 10 µM (Schistosoma mansoni [11]): 100% | mortality at 10 µM (Schistosoma japonicum): 30% | mortality at 10 µM (Schistosoma mansoni [12]): 67% | mortality at 10 µM (Schistosoma mansoni [13]): 57% | mortality at 10 µM (Schistosoma haematobium [14]): 48% | IC50 [15]: 0.06 µM

IC50 (Schistosoma mansoni [3]): 1.8 µM | IC50 (Schistosoma mansoni [16]): 3.4 µM
SMILES: O=C(CCl)NCCOc1ccc(Cl)cc1Cl
Activity (Schistosoma mansoni [5]): 1.8%

IC50 (Schistosoma mansoni [1]): 3 µM | IC50 (Schistosoma mansoni [3]): 2.6 µM
SMILES: CN1CCC(NCc2cccc(-c3ccc(S(=O)(=O)NCc4ccccc4)cc3)c2)CC1
Activity (Schistosoma mansoni [2]): 67.8% | Activity (Schistosoma haematobium [4]): 75.4%

SMILES: O[C@@H](c1cc(-c2ccc(C(F)(F)F)cc2)nc(C(F)(F)F)c1)[C@@H]1CCCCN1
Activity (Schistosoma mansoni [17]): >82%

IC50 (Schistosoma mansoni [1]): 2 µM | IC50 (Schistosoma mansoni [3]): 0.6 µM
SMILES: O=C(Nc1ccc(N2CCNCC2)cc1)c1ccn2ncc(-c3cccc(Cl)c3)c2n1
Activity (Schistosoma mansoni [2]): 70.7% | Activity (Schistosoma haematobium [4]): 100%

IC50 (Schistosoma mansoni [1]): 7.9 µM | IC50 (Schistosoma mansoni [3]): 16.7 µM
SMILES: COc1ccc(Oc2ccc([C@H](C)N(C)c3ncc4c(N)nc(N)nc4n3)cc2)cc1
Activity (Schistosoma mansoni [2]): 32.8% | Activity (Schistosoma haematobium [4]): 50.9%

IC50 (Schistosoma mansoni [18]): < 10 µM | IC50 (Schistosoma mansoni [19]): < 10 µM
SMILES: CC1(C)CCC[C@]2(C)C(CC[C@@](C)(O)/C=C/c3ccc(Cl)cc3)[C@](C)(O)CC[C@@H]12 (some centres undefined)

IC50 (Schistosoma mansoni [18]): 14.2 µM | IC50 (Schistosoma mansoni [19]): 12.3 µM
SMILES: C=C[C@](C)(O)CCC1[C@](C)(O)CC[C@H]2C(C)(C)CCC[C@]12C (some centres undefined)

IC50 (Schistosoma mansoni [18]): < 10 µM | IC50 (Schistosoma mansoni [19]): < 10 µM
SMILES: CC1(C)CCC[C@]2(C)C(CC[C@@](C)(O)/C=C/c3cccc(Cl)c3)[C@](C)(O)CC[C@@H]12 (some centres undefined)

IC50 (Schistosoma mansoni [16]): 0.8 µM
SMILES: Brc1ccc(Nc2nc3ccccc3nc2Nc2ccc(Br)cc2)cc1
Activity (Schistosoma mansoni [5]): 40.8%
